Here are results for 20 molecules from US20230081426A1, “COMPOUNDS AND METHODS FOR KRAS MODULATION AND INDICATIONS THEREFOR” (Plexxikon Inc., priority 2020, published 2023).

Structures are written as SMILES.

Test [1] concerns the target T1, G12D-mutant human KRAS (amino acid residues 1-188) (Homo sapiens, UniProt P01116, G12D).
T1 construct: G12D or G12C-mutant human KRAS (amino acid residues 1-188) with FLAG tag; made in house; host or cells: E. coli
As to the kind of experiment: KRAS Binding Disruption Assay (AlphaScreen; biotinylated KRpep-2d analogue or RAF1-RBD), G12D. To be noted: KRAS G12D; geometric mean; read-out: KRAS GMean IC50 (uM) MUTATION: G12D. The essentials: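 Compounds are titrated against 5-20 nM mutant KRAS and 5-20 nM of either a biotinylated KRpep-2d analogue or RAF1-RBD, incubated 1 h at 25° C. Disruption is detected as reduced Alpha signal after 1 h with donor and acceptor beads at 10 μg/mL.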
For orientation: Alpha assays give light when donor and acceptor beads are brought close together.

The target of test [2] is T2, G12V-mutant human KRAS (amino acid residues 1-188) (Homo sapiens, UniProt P01116, G12V).
T2 construct: G12V-mutant human KRAS (amino acid residues 1-188) with FLAG tag was purified from E. coli; made in house; host or cells: E. coli
As to the kind of experiment: KRAS Binding Competition Assay (AlphaScreen; biotinylated KRpep-2d analogue), G12V. To be noted: geometric mean, read-out: KRAS GMean IC50 (uM) MUTATION: G12V.

For orientation: IC50 means the concentration that gives 50% inhibition. On to `CN(C)c1ccc(Nc2nc(N3C[C@H]4CC[C@@H](C3)N4)c3cc(Cl)c(-c4c(O)cccc4F)c(F)c3n2)cc1` [P-0391, 2-(4-((1R,5S)-3,8-diazabicyclo[3.2.1]octan-3-yl)-6-chloro-2-((4-(dimethylamino)phenyl)amino)-8-fluoroquinazolin-7-yl)-3-fluorophenol], for which the IC50 in test [1] and in test [2] was 0.0001 to 10 µM throughout.

Turning to `Oc1cccc(F)c1-c1c(Cl)cc2c(N3C[C@H]4CC[C@@H](C3)N4)nc(OCC34CCCN3CCC4)nc2c1F` [P-0392, 2-(4-((1R,5S)-3,8-diazabicyclo[3.2.1]octan-3-yl)-6-chloro-8-fluoro-2-((tetrahydro-1H-pyrrolizin-7a(5H)-yl)methoxy)quinazolin-7-yl)-3-fluorophenol], the IC50 lay in the range of 0.0001 to 10 µM in test [1] and 10 to 100 µM in test [2].

Turning to `CN1CCC[C@H]1COc1nc(N2C[C@H]3CC[C@@H](C2)N3C(=O)CCCn2ccnc2)c2ccc(-c3cc(O)cc4ccccc34)c(F)c2n1` [P-0393, 1-((1R,5S)-3-(8-fluoro-7-(3-hydroxynaphthalen-1-yl)-2-(((S)-1-methylpyrrolidin-2-yl)methoxy)quinazolin-4-yl)-3,8-diazabicyclo[3.2.1]octan-8-yl)-4-(1H-imidazol-1-yl)butan-1-one], the IC50 in test [1] and in test [2] was 0.0001 to 10 µM in each case.

As to `C[C@H](O)C(=O)N1[C@@H]2CC[C@H]1CN(c1nc(OC[C@@H]3CCCN3C)nc3c(F)c(-c4cc(O)cc5ccccc45)ccc13)C2` [P-0394, (S)-1-((1R,5S)-3-(8-fluoro-7-(3-hydroxynaphthalen-1-yl)-2-(((S)-1-methylpyrrolidin-2-yl)methoxy)quinazolin-4-yl)-3,8-diazabicyclo[3.2.1]octan-8-yl)-2-hydroxypropan-1-one], the IC50 in test [1] and in test [2] was 0.0001 to 10 µM throughout.

Turning to `C[C@@H](O)C(=O)N1[C@@H]2CC[C@H]1CN(c1nc(OC[C@@H]3CCCN3C)nc3c(F)c(-c4cc(O)cc5ccccc45)ccc13)C2` [P-0395, (R)-1-((1R,5S)-3-(8-fluoro-7-(3-hydroxynaphthalen-1-yl)-2-(((S)-1-methylpyrrolidin-2-yl)methoxy)quinazolin-4-yl)-3,8-diazabicyclo[3.2.1]octan-8-yl)-2-hydroxypropan-1-one], the IC50 in test [1] and in test [2] was 0.0001 to 10 µM each time.

Consider `CN1CCC[C@H]1COc1nc(N2C[C@H]3CC[C@@H](C2)N3C(=O)C2CCC(=O)N2)c2ccc(-c3cc(O)cc4ccccc34)c(F)c2n1` (stereo partly drawn) [P-0396, 5-((1R,5S)-3-(8-fluoro-7-(3-hydroxynaphthalen-1-yl)-2-(((S)-1-methylpyrrolidin-2-yl)methoxy)quinazolin-4-yl)-3,8-diazabicyclo[3.2.1]octane-8-carbonyl)pyrrolidin-2-one], for which the IC50 in test [1] and in test [2] was 0.0001 to 10 µM in each case.

`CN1CCC[C@H]1COc1nc(N2C[C@H]3CC[C@@H](C2)N3C(=O)CC(N)=O)c2ccc(-c3cc(O)cc4ccccc34)c(F)c2n1` [P-0398, 3-((1R,5S)-3-(8-fluoro-7-(3-hydroxynaphthalen-1-yl)-2-(((S)-1-methylpyrrolidin-2-yl)methoxy)quinazolin-4-yl)-3,8-diazabicyclo[3.2.1]octan-8-yl)-3-oxopropanamide]: the IC50 in test [1] and in test [2] was 0.0001 to 10 µM in each case.

In the case of `CN1CCC[C@H]1COc1nc(N2C[C@H]3CC[C@@H](C2)N3C(=O)CCC(N)=O)c2ccc(-c3cc(O)cc4ccccc34)c(F)c2n1` [P-0399, 4-((1R,5S)-3-(8-fluoro-7-(3-hydroxynaphthalen-1-yl)-2-(((S)-1-methylpyrrolidin-2-yl)methoxy)quinazolin-4-yl)-3,8-diazabicyclo[3.2.1]octan-8-yl)-4-oxobutanamide], the IC50 in test [1] and in test [2] was 0.0001 to 10 µM throughout.

With `CN1CCC[C@H]1COc1nc(N2C[C@H]3CC[C@@H](C2)N3C(=O)C(=O)Nc2ccccn2)c2ccc(-c3cc(O)cc4ccccc34)c(F)c2n1` [P-0400, 2-((1R,5S)-3-(8-fluoro-7-(3-hydroxynaphthalen-1-yl)-2-(((S)-1-methylpyrrolidin-2-yl)methoxy)quinazolin-4-yl)-3,8-diazabicyclo[3.2.1]octan-8-yl)-2-oxo-N-(pyridin-2-yl)acetamide], the IC50 in test [1] and in test [2] was 0.0001 to 10 µM in each case.

For the molecule `CN1CCC[C@H]1COc1nc(N2C[C@H]3CC[C@@H](C2)N3C(=O)Cn2ccnc2)c2ccc(-c3cc(O)cc4ccccc34)c(F)c2n1` [P-0401, 1-((1R,5S)-3-(8-fluoro-7-(3-hydroxynaphthalen-1-yl)-2-(((S)-1-methylpyrrolidin-2-yl)methoxy)quinazolin-4-yl)-3,8-diazabicyclo[3.2.1]octan-8-yl)-2-(1H-imidazol-1-yl)ethan-1-one], the IC50 in test [1] and in test [2] was 0.0001 to 10 µM each time.

For the molecule `CN1CCC[C@H]1COc1nc(N2C[C@H]3CC[C@@H](C2)N3C(=O)Cc2cnn(C)c2)c2ccc(-c3cc(O)cc4ccccc34)c(F)c2n1` [P-0402, 1-((1R,5S)-3-(8-fluoro-7-(3-hydroxynaphthalen-1-yl)-2-(((S)-1-methylpyrrolidin-2-yl)methoxy)quinazolin-4-yl)-3,8-diazabicyclo[3.2.1]octan-8-yl)-2-(1-methyl-1H-pyrazol-4-yl)ethan-1-one], the IC50 in test [1] and in test [2] was 0.0001 to 10 µM throughout.

With `CN1CCC[C@H]1COc1nc(N2C[C@H]3CC[C@@H](C2)N3C(=O)[C@H]2CCCN2)c2ccc(-c3cc(O)cc4ccccc34)c(F)c2n1` [P-0403, 4-((1R,5S)-8-(D-prolyl)-3,8-diazabicyclo[3.2.1]octan-3-yl)-8-fluoro-7-(3-hydroxynaphthalen-1-yl)-2-(((S)-1-methylpyrrolidin-2-yl)methoxy)quinazoline], the IC50 is 0.0001 to 10 µM in test [1] and 10 to 100 µM in test [2].

For `CN1CCC[C@H]1COc1nc(N2C[C@H]3CC[C@@H](C2)N3C(=O)C(O)CO)c2ccc(-c3cc(O)cc4ccccc34)c(F)c2n1` (stereo partly drawn) [P-0404, 1-((1R,5S)-3-(8-fluoro-7-(3-hydroxynaphthalen-1-yl)-2-(((S)-1-methylpyrrolidin-2-yl)methoxy)quinazolin-4-yl)-3,8-diazabicyclo[3.2.1]octan-8-yl)-2,3-dihydroxypropan-1-one], the results for the IC50 in test [1] and in test [2] were 0.0001 to 10 µM and 10 to 100 µM, respectively.

For the molecule `CN1CCC[C@H]1COc1nc(N2C[C@H]3CC[C@@H](C2)N3S(=O)(=O)N[C@@H]2CCNC2)c2ccc(-c3cc(O)cc4ccccc34)c(F)c2n1` [P-0405, (1R,5S)-3-(8-fluoro-7-(3-hydroxynaphthalen-1-yl)-2-(((S)-1-methylpyrrolidin-2-yl)methoxy)quinazolin-4-yl)-N-((R)-pyrrolidin-3-yl)-3,8-diazabicyclo[3.2.1]octane-8-sulfonamide], the IC50 fell in the range of 0.0001 to 10 µM in test [1] and 10 to 100 µM in test [2].

As to `Cc1cccc2c1N(c1ccc3c(N4C[C@H]5CC[C@@H](C4)N5)nc(OC[C@@H]4CCCN4C)nc3c1)CC(O)C2` (stereo partly drawn) [P-0406, 1-(4-((1R,5S)-3,8-diazabicyclo[3.2.1]octan-3-yl)-2-(((S)-1-methylpyrrolidin-2-yl)methoxy)quinazolin-7-yl)-8-methyl-1,2,3,4-tetrahydroquinolin-3-ol], the IC50 lay in the range of 10 to 100 µM in test [1] and 100 to 1000 µM in test [2].

For `CN1CCC[C@H]1COc1nc(N2C[C@H]3CC[C@@H](C2)N3C(=O)CS(N)(=O)=O)c2ccc(-c3cc(O)cc4ccccc34)cc2n1` [P-0407, 2-((1R,5S)-3-(7-(3-hydroxynaphthalen-1-yl)-2-(((S)-1-methylpyrrolidin-2-yl)methoxy)quinazolin-4-yl)-3,8-diazabicyclo[3.2.1]octan-8-yl)-2-oxoethane-1-sulfonamide], the IC50 in test [1] and in test [2] was 0.0001 to 10 µM in each case.

On to `CN(C)S(=O)(=O)CC(=O)N1[C@@H]2CC[C@H]1CN(c1nc(OCC34CCCN3CCC4)nc3c(F)c(-c4cc(O)cc5ccccc45)ccc13)C2` [P-0410, 2-((1R,5S)-3-(8-fluoro-7-(3-hydroxynaphthalen-1-yl)-2-((tetrahydro-1H-pyrrolizin-7a(5H)-yl)methoxy)quinazolin-4-yl)-3,8-diazabicyclo[3.2.1]octan-8-yl)-N,N-dimethyl-2-oxoethane-1-sulfonamide], for which the IC50 in test [1] and in test [2] was 0.0001 to 10 µM in each case.

For the molecule `CN(C)CCc1nc(N2C[C@H]3CC[C@@H](C2)N3)c2ccc(-c3cc(O)cc4ccccc34)c(F)c2n1` [P-0413], the IC50 in test [1] was in the range of 0.0001 to 10 µM; in test [2] it was 10 to 100 µM.

Turning to `CN1CCN(CCNC(=O)N2[C@@H]3CC[C@H]2CN(c2nc(OCC4CCCN4C)nc4c(F)c(-c5cc(O)cc6ccccc56)ccc24)C3)CC1` (stereo partly drawn) [P-0416, (1R,5S)-3-(8-fluoro-7-(3-hydroxynaphthalen-1-yl)-2-((1-methylpyrrolidin-2-yl)methoxy)quinazolin-4-yl)-N-(2-(4-methylpiperazin-1-yl)ethyl)-3,8-diazabicyclo[3.2.1]octane-8-carboxamide], the IC50 in test [1] and in test [2] was 10 to 100 µM in each case.

Turning to `CN1CCCC1COc1nc(N2C[C@H]3CC[C@@H](C2)N3C(=O)NC2COC(C)(C)C2)c2ccc(-c3cc(O)cc4ccccc34)c(F)c2n1` (stereo partly drawn) [P-0417, (1R,5S)-N-(5,5-dimethyltetrahydrofuran-3-yl)-3-(8-fluoro-7-(3-hydroxynaphthalen-1-yl)-2-((1-methylpyrrolidin-2-yl)methoxy)quinazolin-4-yl)-3,8-diazabicyclo[3.2.1]octane-8-carboxamide], the IC50 in test [1] and in test [2] was 0.0001 to 10 µM each time.
